Measurements as given in US11666558B2, “Methods of treating intraocular pressure with activators of Tie-2” (EyePoint Pharmaceuticals, Inc., priority 2015, dated 2023).
Like-named read-outs stand apart in the source and are kept apart here.

Test: Ocular tissue concentrations (aqueous humor, vitreous humor, iris, retina, choroid, cornea) after topical ocular, subcutaneous and intravitreal administration
Assay type: in vivo, New Zealand White rabbits
Conditions: New Zealand White, rabbit; for concentration at 2 h / concentration at 4 h / concentration at 0.5 hr / concentration at 1 h: subcutaneous, 5 mg/kg/dose, subcutaneous 5 mg/kg/dose; for concentration at 6 h / concentration at 24 h / concentration at 48 h / concentration at 72 h: other: intravitreal, 2.5 mg/eye
Description: To measure the concentration of Compound 1 in plasma and ocular tissues following topical ocular, subcutaneous, and intravitreal administration, New Zealand White rabbits were administered Compound 1, and plasma and ocular samples were collected at pre-determined time points. Compound 1 formulations were prepared fresh on each day of dosing.
Ocular tissue samples from both eyes of each animal were collected and weights were recorded. Plasma and ocular tissue sample concentrations of Compound 1 were determined by LC-MS/MS.
New Zealand White rabbits weighing 2.5 to 3.5 kg were used on this study. Rabbits were housed one per cage. Animals were not fasted and only healthy animals with no ocular illness were used. Two rabbits per group were sacrificed at each of four ocular tissue sampling time points for a total of eight rabbits per group.
Animals were anesthetized for ocular (topical) and intravitreal dosing following the 12IA7 IACUC protocol. Each rabbit received a bolus dose of test formulation either via topical ocular administration 3 times daily on Days 1 and 2 (at 0, 6, and 12 hours), and once on Day 3 (at 0 hours) into both eyes; via intravitreal administration into both eyes once on Day 1 (at 0 hours); or via subcutaneous administration 2 times daily on Days 1 and 2 (at 0 and 8 hours) and once daily on Day 3 (at 0 hours). Doses were given within an approximately 1 hour window each day where applicable.
On Day 1, for intravitreal administration, or on Day 3, for topical ocular and subcutaneous administration, at the appropriate ocular tissue collection time points, animals were euthanized and both eyes were enucleated immediately. Following enucleation, each eye was rinsed with phosphate-buffered saline. Ocular tissue samples from both eyes of each animal were collected at predetermined time points and weights were recorded. All the samples were frozen immediately on dry ice, and stored at −60° C. to −80° C. pending bioanalysis.
An LC-MS/MS method was developed for the determination of Compound 1 in rabbit aqueous tissues (plasma, aqueous and vitreous humor) and solid ocular tissue samples. A pre-study standard curve was analyzed to determine the specificity, range, and lower limit of quantitation of the method. Plasma and tissue homogenate study samples were extracted and analyzed. All the samples were treated identically to the standards.
One eight-point standard curve was used in each analytical batch. To be accepted, each batch must have had at least five of eight standards with accuracy within ±20% of nominal, except at the lower limit of quantification (LLOQ), where ±25% was acceptable.
Concentration versus time data is plotted in FIGS. 3-16. All data are expressed as ng/g of the free drug. Samples that were below the limit of quantitation (0.2 ng/mL) were not used in the calculation of averages.

[1] = iris, TABLE 16: Iris, OD, free acid, Group 3, read-out: Iris Conc. (ng/g) OD
[2] = iris, TABLE 16: Iris, OS, free acid, Group 3, read-out: Iris Conc. (ng/g) OS
[3] = iris, TABLE 16: Iris, free acid, Group 3, read-out: Iris Average
[4] = retina homogenate, Retina homogenate, left eye, intravitreal 2.5 mg/eye (group 5), individual animals, read-out: Conc. (ng/mL) OS
[5] = retina homogenate, Retina homogenate, OD, sodium salt, intravitreal 2.5 mg/eye, Group 4, read-out: Retina Conc. (ng/mL) OD
[6] = retina homogenate, Retina homogenate, right eye, intravitreal 2.5 mg/eye (group 5), individual animals, read-out: Conc. (ng/mL) OD
[7] = retina homogenate, Retina homogenate, OS, sodium salt, intravitreal 2.5 mg/eye, Group 4, read-out: Retina Conc. (ng/mL) OS
[8] = retina homogenate, Retina homogenate, OD, sodium salt, Group 2, read-out: Retina Conc. (ng/mL) OD
[9] = retina homogenate, Retina homogenate, OS, sodium salt, Group 2, read-out: Retina Conc. (ng/mL) OS
[10] = retina homogenate, Retina homogenate, OD, free acid, Group 3, read-out: Retina Conc. (ng/mL) OD
[11] = retina homogenate, TABLE 16: Retina homogenate, OD, free acid, Group 3, read-out: Retina Conc. (ng/mL) OD
[12] = retina, Retina, OD, sodium salt, intravitreal 2.5 mg/eye, Group 4, read-out: Retina Conc. (ng/g) OD
[13] = retina, Retina, sodium salt, intravitreal 2.5 mg/eye, Group 4, read-out: Retina Avg.
[14] = retina, Retina, OS, sodium salt, intravitreal 2.5 mg/eye, Group 4, read-out: Retina Conc. (ng/g) OS

Work on `COC(=O)N[C@@H](Cc1ccccc1)C(=O)N[C@@H](Cc1ccc(NS(=O)(=O)O)cc1)c1csc(-c2cccs2)n1` [Compound 1] yielded a concentration at 2 h [1] of 30.5 ng/g, a concentration at 2 h [2] of 29.5 ng/g and a concentration at 2 h [3] of 27.6 ng/g. It also gave a concentration at 4 h [1] of 26.5 ng/g, a concentration at 4 h [2] of 16.9 ng/g and a concentration at 4 h [3] of 17.5 ng/g. For the same compound, the concentration at 6 h [4] was 154000 ng/mL, the concentration at 24 h [5] was 29200 ng/mL and the concentration at 24 h [6] was 130000 ng/mL. It also gave a concentration at 48 h [5] of 6490 ng/mL, a concentration at 48 h [7] of 6030 ng/mL and a concentration at 48 h [6] of 66700 ng/mL. For the same compound, the concentration at 72 h [5] was 750 ng/mL, the concentration at 72 h [7] was 370 ng/mL and the concentration at 72 h [4] was 10800 ng/mL. The concentration at 72 h [6] was 9890 ng/mL, the concentration at 0.5 hr [8] was 2.77 ng/mL and the concentration at 0.5 hr [9] was 4.36 ng/mL. For the same compound, the concentration at 1 h [10] was 0.942 ng/mL, the concentration at 1 h [8] was 2.04 ng/mL and the concentration at 1 h (retina homogenate, Retina homogenate, OS, free acid, Group 3, read-out: Retina Conc. (ng/mL) OS) was 0.63 ng/mL. The concentration at 1 h [9] was 3.93 ng/mL, the concentration at 2 h [10] was 0.574 ng/mL and the concentration at 2 h [8] was 1.36 ng/mL. For the same compound, the concentration at 2 h [9] was 1.62 ng/mL, the concentration at 4 h [8] was 1.79 ng/mL and the concentration at 1 h [11] was 0.942 ng/mL. For the same compound, the concentration at 1 h (retina homogenate, TABLE 16: Retina homogenate, OS, free acid, Group 3, read-out: Retina Conc. (ng/mL) OS) was 0.63 ng/mL, the concentration at 2 h [11] was 0.574 ng/mL and the concentration at 6 h [12] was 431000 ng/g. It also gave a concentration at 6 h [13] of 774000 ng/g, a concentration at 24 h [12] of 321000 ng/g and a concentration at 24 h [14] of 308000 ng/g. The concentration at 24 h [13] was 356000 ng/g, the concentration at 48 h [12] was 71400 ng/g and the concentration at 48 h [14] was 66300 ng/g. For the same compound, the concentration at 48 h (retina, Retina, average, intravitreal 2.5 mg/eye (group 5), read-out: Avg.) was 680000 ng/g, the concentration at 48 h (retina, Retina, left eye, intravitreal 2.5 mg/eye (group 5), individual animals, read-out: Conc. (ng/g) OS) was 154000 ng/g and the concentration at 48 h (retina, Retina, right eye, intravitreal 2.5 mg/eye (group 5), individual animals, read-out: Conc. (ng/g) OD) was 734000 ng/g.
